Like-named read-outs stand apart in the source and are kept apart here.
Assays:
Ctenocephalides felis = Ctenocephalides felis oral test; type: in vivo; conditions: 48 h, 100 ppm in citrated cattle blood, unfed adult cat fleas, after 2 days, read-out: efficacy (kill in %)
Procedure: Ctenocephalides felis—Oral Test [table] To produce a suitable active compound preparation, 10 mg of active compound are mixed with 0.5 ml of dimethyl sulfoxide. Dilution with citrated cattle blood gives the desired concentration. About 20 unfed adult cat fleas (Ctenocephalides felis) are placed into a chamber which is closed at the top and bottom with gauze. A metal cylinder whose bottom end is closed with parafilm is placed onto the chamber. The cylinder contains the blood/active compound formulation, which can be imbibed by the fleas through the parafilm membrane. After 2 days, the kill in % is determined. 100% means that all of the fleas have been killed; 0% means that none of the fleas have been killed.

Phaedon cochleariae = Phaedon cochleariae spray test; type: in vivo; conditions: 100 g/ha, sprayed Chinese cabbage leaf discs, mustard beetle larvae, after 7 days
Procedure: Phaedon cochleariae—Spray Test
(§1) To produce a suitable active compound preparation, 1 part by weight of active compound is dissolved using the stated parts by weight of solvent and made up with water containing an emulsifier concentration of 1000 ppm until the desired concentration is attained. To produce further test concentrations, the formulation is diluted with emulsifier-containing water.
Discs of Chinese cabbage leaves (Brassica pekinensis) are sprayed with an active compound formulation of the desired concentration and, after drying, populated with larvae of the mustard beetle (Phaedon cochleariae).
After 7 days, the efficacy in % is determined. 100% means that all the beetle larvae have been killed; 0% means that no beetle larvae have been killed.

Myzus persicae [1] = experiment: Myzus persicae spray test; type: in vivo; conditions: foliar, 120 h, sprayed Chinese cabbage leaf discs, all stages of the green peach aphid, after 5 days, read-out: efficacy
Procedure: Myzus persicae—Spray Test [table] To produce a suitable active compound preparation, 1 part by weight of active compound is dissolved using the stated parts by weight of solvent and made up with water containing an emulsifier concentration of 1000 ppm until the desired concentration is attained. To produce further test concentrations, the formulation is diluted with emulsifier-containing water. Discs of Chinese cabbage leaves (Brassica pekinensis) infested by all stages of the green peach aphid (Myzus persicae) are sprayed with an active compound formulation of the desired concentration. After 5 days, the efficacy in % is determined. 100% means that all the aphids have been killed; 0% means that no aphids have been killed.

Myzus persicae [2] = experiment: Myzus persicae oral test; type: in vivo; conditions: 120 h, mixed population of green peach aphids, after 5 days, read-out: efficacy
Procedure: Myzus persicae—Oral Test [table] To produce a suitable preparation of active compound, 1 part by weight of active compound is dissolved using the specified parts by weight of solvent and made up with water until the desired concentration is attained. 50 μl of the active ingredient formulation are transferred into microtitre plates and made up to a final volume of 200 μl with 150 μl of IPL41 insect medium (33%+15% sugar). Subsequently, the plates are sealed with parafilm, which a mixed population of green peach aphids (Myzus persicae) within a second microtitre plate is able to puncture and imbibe the solution through. After 5 days, the efficacy in % is determined. 100% means that all the aphids have been killed; 0% means that no aphids have been killed.

Boophilus microplus = Boophilus microplus injection test; type: in vivo; conditions: 20 μg/animal, injection into engorged adult female cattle ticks, assessed after 7 days by laying of fertile eggs
Procedure: Boophilus microplus—Injection Test [table] To produce a suitable active compound preparation, 10 mg of active compound are mixed with 0.5 ml of solvent and the concentrate is diluted to the desired concentration with solvent. 1 μl of the active compound solution is injected into the abdomen of 5 engorged adult female cattle ticks (Boophilus microplus). The animals are transferred into dishes and kept in a climate-controlled room. Efficacy is assessed after 7 days by laying of fertile eggs. Eggs which are not visibly fertile are stored in a climate-controlled cabinet until the larvae hatch after about 42 days. An efficacy of 100% means that none of the ticks has laid any fertile eggs; 0% means that all the eggs are fertile.

Spodoptera frugiperda = Spodoptera frugiperda spray test; type: in vivo; conditions: foliar, 168 h, sprayed maize leaf discs, fall armyworm caterpillars, after 7 days, read-out: efficacy
Procedure: Spodoptera frugiperda—Spray Test [table] To produce a suitable active compound preparation, 1 part by weight of active compound is dissolved using the stated parts by weight of solvent and made up with water containing an emulsifier concentration of 1000 ppm until the desired concentration is attained. To produce further test concentrations, the formulation is diluted with emulsifier-containing water. Leaf discs of maize (Zea mays) are sprayed with an active compound formulation of the desired concentration and, after drying, populated with caterpillars of the fall armyworm (Spodoptera frugiperda). After 7 days, the efficacy in % is determined. 100% means that all the caterpillars have been killed; 0% means that no caterpillar has been killed.

[3] = log P by HPLC on reversed-phase column (C18), EEC Directive 79/831 Annex V.A8; type: physicochemical
Procedure: The log P values were determined according to EEC Directive 79/831 Annex V.A8 by HPLC (high-performance liquid chromatography) on a reversed-phase column (C18) using the following methods: ^[a] […] Calibration was carried out using a homologous series of straight-chain alkan-2-ones (having 3 to 16 carbon atoms) with known log P values. The values between successive alkanones are determined by linear regression.

Tetranychus urticae = Tetranychus urticae spray test, OP-resistant; type: in vivo; conditions: 20 g/ha, sprayed bean leaf discs, all stages of the greenhouse red spider mite, after 6 days
Procedure: Tetranychus urticae—Spray Test, OP-Resistant
as §1
Discs of bean leaves (Phaseolus vulgaris) infested with all stages of the greenhouse red spider mite (Tetranychus urticae) are sprayed with an active compound formulation of the desired concentration.
After 6 days, the efficacy in % is determined. 100% means that all the spider mites have been killed; 0% means that no spider mites have been killed.

| chromatographic logP ([3]; LC-UV in the acidic range, formic acid in water / acetonitrile, read-out: log P[acidic]) | chromatographic logP ([3]; LC-UV in the neutral range, ammonium carbonate in water / acetonitrile, read-out: log P[neutral]) | SMILES | pest or weed control at 100 ppm (Ctenocephalides felis) [%] | efficacy (Phaedon cochleariae) [%] | pest or weed control at 100 g/ha (Myzus persicae [1]) [%] | pest or weed control at 4 ppm (Myzus persicae [2]) [%] | efficacy (Boophilus microplus) [%] | pest or weed control at 100 g/ha (Spodoptera frugiperda) [%] | efficacy (Tetranychus urticae) [%] |
| --- | --- | --- | --- | --- | --- | --- | --- | --- | --- |
|  |  | CCS(=O)(=O)c1c(-c2nc3cc(C(F)(F)F)cnc3n2C)nc(-c2cnn(C3CC3)c2)n1C [Example I-6] | 100 | 100 | 100 | 100 | 95 | 100 |  |
| 3.46 | 3.36 | CCS(=O)(=O)c1c(-c2nc3cc(C(F)(F)F)cnc3n2C)nc(-n2ccc(C3CC3)n2)n1C [Example I-9, 2-[2-(3-Cyclopropyl-1H-pyrazol-1-yl)-5-(ethylsulfonyl)-1-methyl-1H-imidazol-4-yl]-3-methyl-6-(trifluoromethyl)-3H-imidazo[4,5-b]pyridine] | 90 | 100 | 100 | 100 |  | 100 |  |
|  |  | CCS(=O)(=O)c1c(-c2nc3cc(C(F)(F)F)cnc3n2C)nc(-n2cc(Br)c(C3CC3)n2)n1C [Example I-10] | 90 | 100 | 90 | 100 | 90 | 100 | 90 |
